{"source": "patent US12728119B2", "about": "“Pharmaceutical composition for preventing or treating cancer comprising 3-ketoacyl CoA thiolase inhibitor and carnitine acylcarnitine carrier inhibitor” (NATIONAL CANCER CENTER, priority 2020, dated 2026)", "type_in_all_cases": "cell-based", "key": {"A375 melanoma cell line": {"tested_on": "A375 melanoma cell line", "test": "SRB analysis 3", "settings": "Gemcitabine 5 μM, 48 hours", "experimental": "(§1) Through SRB analysis (n=3), the effect of triple combination treatment of a CAC inhibitor (KN510: omeprazole), ACAA inhibitor (KN713: trimetazidine) and other anticancer drug on cell growth in the cancer cells was analyzed. (see Table 11).\n(§2) The SRB assay was performed as follows: each cell line (100 μl) was seeded into 96-well microtiter plates at densities ranging from 5,000 to 40,000 cells/well depending on the doubling time of each cell line. After 24 hours, drug (100 μl per well) was added to each well and the culture was incubated at 37° C. for 48 hours. Cells were then fixed in 50% TCA (50 μl per well) and plates were incubated at 4° C. for a minimum of 1 hour or a maximum of 3 hours. After that, the liquid was removed from the plate, then rinsed 5 times with water and dried for approximately 12-24 hours at room temperature (RT). After the fixed cells were stained with 0.4% SRB (100 μl per well) for 10 minutes at room temperature, the plates were washed 3 times with 1% glacial acetic acid and dried at room temperature for about 12-24 hours. SRB staining was dissolved in 10 mM Trizma base and absorbance was read at 515 nm. The effect of the drug was expressed as GI50 (50% growth inhibition), TGI (total growth inhibition) or LC50 (lethal concentration). GI50 is the maximum concentration at the moment of 50% inhibition of cell proliferation and IC50 is the concentration of the drug that inhibits the enzyme activity in vitro by 50% in this study."}, "[1]": {"tested_on": "A549 non-small cell lung cancer (NSCLC) cell line", "test": "SRB analysis 3", "settings": "Gemcitabine 2.5 μM, 48 hours", "experimental": "as §1, §2"}, "[2]": {"tested_on": "ACHN renal cancer cell line", "test": "SRB analysis 3", "settings": "Gemcitabine 2.5 μM, 48 hours", "experimental": "as §1, §2"}, "[3]": {"tested_on": "AGS gastric cancer cell line", "test": "SRB analysis 3", "settings": "Gemcitabine 2.5 μM, 48 hours", "experimental": "as §1, §2"}, "[4]": {"tested_on": "AsPC-1 pancreatic cancer (PDAC) cell line", "test": "SRB analysis 3", "settings": "Gemcitabine 2.5 μM, 48 hours", "experimental": "as §1, §2"}, "[5]": {"tested_on": "COLO-205 colon cancer cell line", "test": "SRB analysis 3", "settings": "Gemcitabine 2.5 μM, 48 hours", "experimental": "as §1, §2"}, "[6]": {"tested_on": "Caki-1 renal cancer cell line", "test": "SRB analysis 3", "settings": "Gemcitabine 2.5 μM, 48 hours", "experimental": "as §1, §2"}, "[7]": {"tested_on": "DU145 prostate cancer cell line", "test": "SRB analysis 3", "settings": "Gemcitabine 5 μM, 48 hours", "experimental": "as §1, §2"}, "[8]": {"tested_on": "H1975 non-small cell lung cancer (NSCLC) cell line", "test": "SRB analysis 3", "settings": "Gemcitabine 2.5 μM, 48 hours", "experimental": "as §1, §2"}, "[9]": {"tested_on": "HCT-116 colon cancer cell line", "test": "SRB analysis 3", "settings": "Gemcitabine 2.5 μM, 48 hours", "experimental": "as §1, §2"}, "[10]": {"tested_on": "Huh-7 liver cancer cell line", "test": "SRB analysis 3", "settings": "Gemcitabine 2.5 μM, 48 hours", "experimental": "as §1, §2"}, "[11]": {"tested_on": "MCF7 breast cancer cell line", "test": "SRB analysis 3", "settings": "Gemcitabine 2.5 μM, 48 hours", "experimental": "as §1, §2"}, "[12]": {"tested_on": "MDA-MB-231 breast cancer cell line", "test": "SRB analysis 3", "settings": "Gemcitabine 2.5 μM, 48 hours", "experimental": "as §1, §2"}, "[13]": {"tested_on": "MIA PaCa-2 pancreatic cancer (PDAC) cell line", "test": "SRB analysis 3", "settings": "Gemcitabine 2.5 μM, 48 hours", "experimental": "as §1, §2"}, "[14]": {"tested_on": "MKN45 gastric cancer cell line", "test": "SRB analysis 3", "settings": "MKN-45; Gemcitabine 2.5 μM; 48 hours", "experimental": "as §1, §2"}, "[15]": {"tested_on": "OVCAR-8 ovarian cancer cell line", "test": "SRB analysis 3", "settings": "Gemcitabine 2.5 μM, 48 hours", "experimental": "as §1, §2"}, "[16]": {"tested_on": "PC-3 prostate cancer cell line", "test": "SRB analysis 3", "settings": "Gemcitabine 5 μM, 48 hours", "experimental": "as §1, §2"}, "[17]": {"tested_on": "SK-OV-3 ovarian cancer cell line", "test": "SRB analysis 3", "settings": "Gemcitabine 2.5 μM, 48 hours", "experimental": "as §1, §2"}, "[18]": {"tested_on": "SK-hep-1 liver cancer cell line", "test": "SRB analysis 3", "settings": "Gemcitabine 2.5 μM, 48 hours", "experimental": "as §1, §2"}, "[19]": {"tested_on": "UACC62 melanoma cell line", "test": "SRB analysis 3", "settings": "Gemcitabine 5 μM, 48 hours", "experimental": "as §1, §2"}, "[20]": {"tested_on": "T87G glioblastoma (GBM) cell line", "test": "SRB analysis 3", "settings": "Gemcitabine 5 μM, 48 hours", "experimental": "as §2, with “Through SRB analysis (n=3), the effect of triple combination treatment of a CAC inhibitor ([…] inhibitor (KN713: trimetazidine) and other anticancer drug on cell growth in the cancer cells was analyzed. (see Table 11). The” for “The”, “nm.” for “nm. The effect of the drug was expressed as GI50 (50% growth inhibition), TGI (total growth inhibition) or LC50 (lethal concentration). GI50 is the maximum concentration at the moment of 50% inhibition of cell proliferation and IC50 is the concentration of the drug that inhibits the enzyme activity in vitro by 50% in this study.”"}, "[21]": {"tested_on": "U87MG glioblastoma (GBM) cell line", "test": "SRB analysis 3", "settings": "Gemcitabine 5 μM, 48 hours", "experimental": "as §2, with “Through SRB analysis (n=3), the effect of triple combination treatment of a CAC inhibitor ([…] inhibitor (KN713: trimetazidine) and other anticancer drug on cell growth in the cancer cells was analyzed. (see Table 11). The” for “The”, “nm.” for “nm. The effect of the drug was expressed as GI50 (50% growth inhibition), TGI (total growth inhibition) or LC50 (lethal concentration). GI50 is the maximum concentration at the moment of 50% inhibition of cell proliferation and IC50 is the concentration of the drug that inhibits the enzyme activity in vitro by 50% in this study.”"}, "cancer cells": {"tested_on": "cancer cells", "test": "SRB analysis 3, triple combination, summary over cancer panels", "experimental": "as §1, §2"}}}
{"compound": "Nc1ccn([C@@H]2O[C@H](CO)[C@@H](O)C2(F)F)c(=O)n1", "note": "[Gemcitabine]", "values": [{"measurement": "cell growth (Control = 100)", "setting": "A375 melanoma cell line", "result": 25.12}, {"measurement": "cell growth (Control = 100)", "setting": "[1]", "result": 19.65}, {"measurement": "cell growth (Control = 100)", "setting": "[2]", "result": "−47.9775"}, {"measurement": "cell growth (Control = 100)", "setting": "[3]", "result": 15.95}, {"measurement": "cell growth (Control = 100)", "setting": "[4]", "result": 20.83}, {"measurement": "cell growth (Control = 100)", "setting": "[5]", "result": 6.029}, {"measurement": "cell growth (Control = 100)", "setting": "[6]", "result": 28.94}, {"measurement": "cell growth (Control = 100)", "setting": "[7]", "result": 45.33}, {"measurement": "cell growth (Control = 100)", "setting": "[8]", "result": 16.14}, {"measurement": "cell growth (Control = 100)", "setting": "[9]", "result": 3.788}, {"measurement": "cell growth (Control = 100)", "setting": "[10]", "result": 33.13}, {"measurement": "cell growth (Control = 100)", "setting": "[11]", "result": 12.31}, {"measurement": "cell growth (Control = 100)", "setting": "[12]", "result": 65.05}, {"measurement": "cell growth (Control = 100)", "setting": "[13]", "result": 25.9}, {"measurement": "cell growth (Control = 100)", "setting": "[14]", "result": 36.14}, {"measurement": "cell growth (Control = 100)", "setting": "[15]", "result": 21.24}, {"measurement": "cell growth (Control = 100)", "setting": "[16]", "result": 48.0}, {"measurement": "cell growth (Control = 100)", "setting": "[17]", "result": 24.21}, {"measurement": "cell growth (Control = 100)", "setting": "[18]", "result": 22.18}, {"measurement": "cell growth (Control = 100)", "setting": "[19]", "result": 31.60}, {"measurement": "cell growth (Control = 100)", "setting": "[20]", "result": 53.69}, {"measurement": "cell growth (Control = 100)", "setting": "[21]", "result": 3.67}, {"measurement": "Positive/Negative (triple combination of KN510, KN713 and the listed anticancer drug)", "setting": "cancer cells; Breast Cancer, BT-549, MDA MB 231", "result": "negative"}, {"measurement": "Positive/Negative (triple combination of KN510, KN713 and the listed anticancer drug)", "setting": "cancer cells; Colon Cancer, HT-29, COLO-205", "result": "negative"}, {"measurement": "Positive/Negative (triple combination of KN510, KN713 and the listed anticancer drug)", "setting": "cancer cells; GBM, U87MG, T87G", "result": "negative"}, {"measurement": "Positive/Negative (triple combination of KN510, KN713 and the listed anticancer drug)", "setting": "cancer cells; Liver Cancer, SNU-449, Huh-7", "result": "negative"}, {"measurement": "Positive/Negative (triple combination of KN510, KN713 and the listed anticancer drug)", "setting": "cancer cells; NSCLC, A549, H522", "result": "negative"}, {"measurement": "Positive/Negative (triple combination of KN510, KN713 and the listed anticancer drug)", "setting": "cancer cells; Ovarian Cancer, SK-OV-3, OVCAR-3", "result": "negative"}, {"measurement": "Positive/Negative (triple combination of KN510, KN713 and the listed anticancer drug)", "setting": "cancer cells; PDAC, MIA PaCa-2, PANC-1", "result": "Positive"}, {"measurement": "Positive/Negative (triple combination of KN510, KN713 and the listed anticancer drug)", "setting": "cancer cells; Prostate Cancer, PC-3, DU-145", "result": "Positive"}, {"measurement": "Positive/Negative (triple combination of KN510, KN713 and the listed anticancer drug)", "setting": "cancer cells; Renal cell carcinoma, ACHN, CAKI-1", "result": "negative"}, {"measurement": "Positive/Negative (triple combination of KN510, KN713 and the listed anticancer drug)", "setting": "cancer cells; Stomach Cancer, MKN-28, AGS", "result": "negative"}, {"measurement": "Positive/Negative (triple combination of KN510, KN713 and the listed anticancer drug)", "setting": "cancer cells; melanoma, UACC62, A375", "result": "Positive"}]}
